Publication PMC11801377, “A uniquely efficacious type of CFTR corrector with complementary mode of action” (Science Advances, 2024)

Biological target: F508del-CFTR (Homo sapiens, UniProt P13569, DEL508-508)
Assay: SILAC heavy pulse light-chase assay: ER CFTR folding efficiency in CFBE41o- cells
Format: cell-based
Conditions: 2.5-hour chase; 2 μM IDOR-3, 2 μM IDOR-4, 10 μM TEZ, 10 μM ELX, TEZ + ELX 10 μM each
Experimental: Stable isotope labeling using amino acids in cell culture (SILAC technology, Thermo Fisher Scientific) was used. For pulse-chase assays to determine CFTR folding efficiency at the ER, CFBE-F508del-CFTR or CFBE-WT-CFTR were seeded at 100,000 cells per well into a FNC-coated 24-well plate in CFBE growth medium and, the next day, incubated for 24 hours with “SILAC light medium” [arginine- and lysine-free RPMI 1640 #A33823, 84 mg/liter light L-arginine, # 89989, 146 mg/liter light L-lysine, #88429 and 20 mg/liter L-proline, # 89989 (to prevent a potential arginine-proline conversion)] supplemented with 10% dialyzed FBS. Cells were then washed once in PBS (37°C) and incubated for 1 hour with “starvation medium” (arginine-, lysine-free RPMI 1640, and 1% HSA) containing the indicated fixed concentrations of correctors. A 30-min metabolic pulse labeling was then performed by replacing the medium with “SILAC heavy medium” [arginine- and lysine-free RPMI 1640, L-proline (20 mg/liter), heavy L-arginine (84 mg/liter; ^13C6^15N4, #89990), heavy L-lysine (146 mg/liter; ^13C6^15N2, #88209), and 1% HSA] containing correctors. Cells were then washed with PBS and chased in SILAC light medium supplemented with 1% HSA and correctors. This medium was kept for 1, 2.5, 4, and 6 h of chase time followed by cell lysis in RIPA buffer as described above. […]

Chain of F508del-CFTR (P13569 with tags, fused parts or gaps DEL508-508): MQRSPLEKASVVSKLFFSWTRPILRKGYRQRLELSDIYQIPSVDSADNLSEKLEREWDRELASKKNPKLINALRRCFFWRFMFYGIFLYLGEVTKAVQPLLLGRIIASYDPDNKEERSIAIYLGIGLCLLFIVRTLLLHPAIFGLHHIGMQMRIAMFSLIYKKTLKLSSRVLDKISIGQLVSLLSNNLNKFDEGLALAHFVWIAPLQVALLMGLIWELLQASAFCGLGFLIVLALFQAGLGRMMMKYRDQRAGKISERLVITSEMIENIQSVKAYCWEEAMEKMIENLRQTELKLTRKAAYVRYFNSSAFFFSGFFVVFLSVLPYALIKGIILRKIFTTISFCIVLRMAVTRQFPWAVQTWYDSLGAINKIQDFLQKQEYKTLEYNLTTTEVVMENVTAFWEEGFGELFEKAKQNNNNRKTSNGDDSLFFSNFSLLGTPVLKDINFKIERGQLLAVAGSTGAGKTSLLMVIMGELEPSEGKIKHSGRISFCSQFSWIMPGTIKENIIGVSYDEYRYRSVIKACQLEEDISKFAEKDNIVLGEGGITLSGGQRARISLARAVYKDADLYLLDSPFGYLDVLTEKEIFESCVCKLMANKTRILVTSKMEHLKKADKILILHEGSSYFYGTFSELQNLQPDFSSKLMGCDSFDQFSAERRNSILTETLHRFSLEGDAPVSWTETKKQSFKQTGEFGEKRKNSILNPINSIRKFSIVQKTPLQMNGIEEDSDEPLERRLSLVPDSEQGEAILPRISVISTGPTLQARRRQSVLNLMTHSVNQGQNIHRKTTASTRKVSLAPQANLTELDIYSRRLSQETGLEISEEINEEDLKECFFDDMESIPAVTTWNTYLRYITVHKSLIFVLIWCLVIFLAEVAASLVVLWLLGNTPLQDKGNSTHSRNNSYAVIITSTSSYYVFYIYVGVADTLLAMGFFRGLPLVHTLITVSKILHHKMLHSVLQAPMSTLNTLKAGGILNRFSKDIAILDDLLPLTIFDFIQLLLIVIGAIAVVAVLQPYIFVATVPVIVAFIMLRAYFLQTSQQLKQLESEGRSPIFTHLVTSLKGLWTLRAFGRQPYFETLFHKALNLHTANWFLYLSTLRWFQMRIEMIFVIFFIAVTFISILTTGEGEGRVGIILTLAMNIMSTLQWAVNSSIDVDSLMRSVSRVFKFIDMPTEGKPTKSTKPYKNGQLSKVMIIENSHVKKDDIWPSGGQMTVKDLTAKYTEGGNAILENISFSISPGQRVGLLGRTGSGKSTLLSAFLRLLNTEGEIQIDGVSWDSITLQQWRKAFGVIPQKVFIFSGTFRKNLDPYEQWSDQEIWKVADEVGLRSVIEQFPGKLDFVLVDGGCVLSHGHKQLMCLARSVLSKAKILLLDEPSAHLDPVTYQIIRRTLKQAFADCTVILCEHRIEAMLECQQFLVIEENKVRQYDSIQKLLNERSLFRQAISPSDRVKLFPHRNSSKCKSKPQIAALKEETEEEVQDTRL

| B-to-C conversion rate (folding efficiency) | Compound |
| --- | --- |
| 6.7% | Cc1nn(C)cc1S(=O)(=O)NC(=O)c1ccc(-n2ccc(OCC(C)(C)C(F)(F)F)n2)nc1N1C[C@@H](C)CC1(C)C [ELX, elexacaftor] |
| 2.4% | CC(C)(CO)c1cc2cc(NC(=O)C3(c4ccc5c(c4)OC(F)(F)O5)CC3)c(F)cc2n1C[C@@H](O)CO [TEZ, tezacaftor] |
